# Source: patent US20010036929A1, “Xrcc3 is required for assembly of Rad51-complexes in vivo” (ARCH Development Corporation., priority 1998, published 2001)
# Columns and labels:
# [1] = system: Rad51 foci in CHO AA8 cells; experiment: Cisplatin-induced Rad51 focus formation (a-Rad51 immunostaining) in AA8 cells; type: cell-based, Chinese hamster; conditions: for Induction of Rad51 foci: then 3 hours before fixation
# Experimental: (§1) Cisplatin treatment: For dose response studies, the cultures were washed twice in serum-free medium and then incubated for 1 hour in serum-free medium containing varying concentrations of cisplatin (Bristol Laboratories). After the incubation, the dishes were washed three times in serum-free medium and complete medium was added. Cultures were then placed at 37° C. for 3 hours at which time a single-cell suspension was obtained with trypsin/EDTA and the cells were prepared for immunostaining. For time course studies, cell cultures were washed twice in serum-free medium and incubated for one hour in serum-free medium containing 10 μM cisplatin. After incubation, the cells were washed and incubated in complete medium. At the appropriate times the cells were harvested by trypsin treatment and prepared for immunostaining. Immunostaining: Fixed cells were transferred to slides using a Cytospin 2 (Shandon, Pittsburgh, Pa.) centrifuge. Slides were washed twice in Tris-buffered saline (TBS) and incubated for 15 minutes in TBS 1% bovine serum albumin BSA at room temperature. The wash was removed and anti-Rad51 antibody in TBS 1% BSA was applied. The slides were incubated overnight at 4° C. in a humidified chamber. The slides were washed twice in TBS and secondary antibody (fluorescein-conjugated goat anti-rabbit; Molecular Probes, Inc., Eugene, Oreg.) was applied at a 1:1000 dilution in the dark. The slides were incubated at room temperature in the dark for 1 hour. The slides were washed twice with TBS and stained with DAPI (0.1 μg/ml in TBS) for 5 minutes. The slides were dried and coverslips mounted with Vectashield mounting medium (Vector Laboratories Inc., Burlingame, Calif.). Microscopy: Immunostained samples were examined via standard epifluorescence microscopy using a Ziess Photoscope III through a 100X objective. Digital images were obtained with a CCD camera (Imagepoint, Photometrics Inc., Tucson, Ariz.). A single focal plane was documented for each nucleus. Therefore, the numbers presented are less than the total number of foci per nucleus. […]
# [2] = system: Rad51 foci in CHO PXR3 cells; experiment: Cisplatin-induced Rad51 focus formation (a-Rad51 immunostaining) in PXR3 cells; type: cell-based, Chinese hamster; conditions: foci per nucleus, single focal plane
# Experimental: as §1, with “dark.” for “dark. The slides were incubated at room temperature in the dark for 1 hour. The slides were washed twice with TBS and stained with DAPI (0.1 μg/ml in TBS) for 5 minutes. The slides were dried and coverslips mounted with Vectashield mounting medium (Vector Laboratories Inc., Burlingame, Calif.). Microscopy: Immunostained samples were examined via standard epifluorescence microscopy using a Ziess Photoscope III through a 100X objective. Digital images were obtained with a CCD camera (Imagepoint, Photometrics Inc., Tucson, Ariz.). A single focal plane was documented for each nucleus. Therefore, the numbers presented are less than the total number of foci per nucleus.”
# [3] = system: Rad51 foci in CHO CXR3 cells; experiment: Cisplatin-induced Rad51 focus formation (a-Rad51 immunostaining) in CXR3 cells; type: cell-based, Chinese hamster; conditions: foci per nucleus, single focal plane
# Experimental: as §1, with “dark.” for “dark. The slides were incubated at room temperature in the dark for 1 hour. The slides were washed twice with TBS and stained with DAPI (0.1 μg/ml in TBS) for 5 minutes. The slides were dried and coverslips mounted with Vectashield mounting medium (Vector Laboratories Inc., Burlingame, Calif.). Microscopy: Immunostained samples were examined via standard epifluorescence microscopy using a Ziess Photoscope III through a 100X objective. Digital images were obtained with a CCD camera (Imagepoint, Photometrics Inc., Tucson, Ariz.). A single focal plane was documented for each nucleus. Therefore, the numbers presented are less than the total number of foci per nucleus.”
# [4] = system: Rad51 foci in CHO irs1SF cells; experiment: Cisplatin-induced Rad51 focus formation (a-Rad51 immunostaining) in irs1SF cells; type: cell-based, Chinese hamster
# Experimental: as §1, with “dark.” for “dark. The slides were incubated at room temperature in the dark for 1 hour. The slides were washed twice with TBS and stained with DAPI (0.1 μg/ml in TBS) for 5 minutes. The slides were dried and coverslips mounted with Vectashield mounting medium (Vector Laboratories Inc., Burlingame, Calif.). Microscopy: Immunostained samples were examined via standard epifluorescence microscopy using a Ziess Photoscope III through a 100X objective. Digital images were obtained with a CCD camera (Imagepoint, Photometrics Inc., Tucson, Ariz.). A single focal plane was documented for each nucleus. Therefore, the numbers presented are less than the total number of foci per nucleus.”
# [5] = system: XRCC3+ tumors; experiment: Mouse xenograft tumor model, XRCC3+ tumors, intratumoral cisplatin; type: in vivo; conditions: XRCC3+ tumors in nude mice; 0.1 ml 100 μg/ml cisplatin injected into tumors on days 1-5
# Experimental: (§2) The sensitivity of XRCC3 defective cells to cis-platinum is also reflected in the ability of the drug to cause regression and cure of tumors in a mouse xenograft tumor model. Groups of 12 nude mice were injected in the hind limb with 5X105 XRCC3+ cells or xrcc3− cells. XRCC3+ lines (essentially equivalent to the PXR3 lines described above) and isogenic xrcc3− lines (equivalent to the irs1SF line described above), were injected into nude mice. Tumors were allowed to grow for 2 weeks (volumes of 300-500 mm3). On days 1-5 tumors were injected with 0.1 ml 100 μg/ml cisplatin in PBS or with the same volume of PBS alone. […] Tumor volumes were measured at 3-5 day intervals starting on the first day of treatment. Fractional tumor volumes were calculated as the volume of the tumor on a particular day divided by the volume of the tumor on the day of the first treatment. The fractional tumor volumes in mice injected with XRCC3+ positive cells increased regardless of whether they received cisplatin treatment or the control treatment; the final fractional tumor volume for both the treated and untreated groups was about 5 on average. […] Fractional tumor volume was about 5 on average for the untreated cells and about 0.05 on average for the tumors treated with cisplatin.
# [6] = system: xrcc3− tumors; experiment: Mouse xenograft tumor model, xrcc3- tumors, intratumoral cisplatin; type: in vivo; conditions: xrcc3− tumors in nude mice; 0.1 ml 100 μg/ml cisplatin injected into tumors on days 1-5
# Experimental: as §2
# [7] = system: CHO cells; conditions: 1 μM cisplatin for 1 hour; cited from earlier work
structure (smiles),measurement,setting,value
N.N.[Cl][Pt][Cl] [cisplatin],Induction of Rad51 foci,[1]; 1 μM cisplatin for 1 hour,Significant induction of foci
same,Induction of Rad51 foci,[1]; 10 μM cisplatin for 1 hour,Near maximum induction of foci
same,Rad51 foci induced by cisplatin treatment,"[1]; AA8 cells, foci per nucleus, single focal plane",up to 30 foci
same,Rad51 foci induced by cisplatin treatment,[2],up to 30 foci
same,Rad51 foci induced by cisplatin treatment,[3],up to 30 foci
same,Induction of Rad51 foci by cisplatin treatment,[4],no induction of foci was detected
same,"Final fractional tumor volume (volume on day / volume on day of first treatment), average",[5],about 5
same,"Fractional tumor volume (volume on day / volume on day of first treatment), average",[6],about 0.05
same,Cells that survive,[7],50-80%
